Measurements: BindingDB's records for doi:10.3109/14756366.2012.681653 (Atatürk University, 2013)
Structures can show the parent of a compound that is named as a salt.

molecular target: Serum paraoxonase/arylesterase 1 (Homo sapiens, UniProt P27169); assay: PON Activity Assay
Experimental: PON activities were measured in the presence of different drug concentrations. Control activity was assumed to be 100% in the absence of inhibitor. Experiments of all compounds were tested in triplicate at each concentration used and Activity%-[Drug] graphs were drawn for each drug. Determination of Ki values was performed by using three different inhibitor concentrations. In these experiments, paraoxone was used as substrate at five different concentrations (0.15, 0.3, 0.45, 0.6, and 0.75 mM).

Serum paraoxonase/arylesterase 1, sequence (P27169 whole entry): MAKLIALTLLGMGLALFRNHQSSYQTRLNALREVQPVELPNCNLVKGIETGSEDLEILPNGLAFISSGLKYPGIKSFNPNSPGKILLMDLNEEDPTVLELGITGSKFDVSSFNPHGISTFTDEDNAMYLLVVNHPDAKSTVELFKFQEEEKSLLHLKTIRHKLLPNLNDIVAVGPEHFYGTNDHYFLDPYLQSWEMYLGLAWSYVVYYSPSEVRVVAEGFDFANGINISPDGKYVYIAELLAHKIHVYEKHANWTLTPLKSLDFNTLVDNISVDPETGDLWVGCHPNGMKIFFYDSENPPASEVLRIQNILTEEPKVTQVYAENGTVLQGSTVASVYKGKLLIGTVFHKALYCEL

Q: For `CCC[C@@H]1C[C@@H](C(=O)N[C@@H]([C@H]2O[C@H](SC)[C@H](O)[C@@H](O)[C@H]2O)[C@@H](C)O)N(C)C1` [(2S,4R)-N-((1R,2R)-2-hydroxy-1-((2R,3R,4S,5R,6R)-3,4,5-trihydroxy-6-(methylthio)-tetrahydro-2H-pyran-2-yl)propyl)-1-methyl-4-propylpyrrolidine-2-carboxamide], which Ki is on record?
A: 18.3 mM

Q: With `CCN[C@@H]1C[C@H](N)[C@H](O[C@H]2OC(CN)=CC[C@H]2N)[C@H](O)[C@H]1O[C@H]1OC[C@](C)(O)[C@H](NC)[C@H]1O` [Netilmycin sulfate] as the compound, how does the Ki read?
A: 3.73 mM

Q: How did the Ki turn out when `CN[C@H]1[C@@H](O[C@@H]2[C@@H](O[C@H]3[C@H](O)[C@@H](O)[C@H](N=C(N)N)[C@@H](O)[C@@H]3N=C(N)N)O[C@H](C)[C@@]2(O)C=O)O[C@H](CO)[C@@H](O)[C@@H]1O` [Streptomycin sulfate] was run?
A: 56.3 mM

Q: `CN(C)[C@@H]1C(=O)C(C(N)=O)=C(O)[C@@]2(O)C(=O)C3=C(O)c4c(O)cccc4[C@@](C)(O)[C@H]3[C@H](O)[C@@H]12` [Oxytetracycline hydrochloride] was tested. Which Ki did it give?
A: 0.2 mM

Q: For `CCC[C@@H]1C[C@@H](C(=O)N[C@@H]([C@H]2O[C@H](SC)[C@H](OP(=O)(O)O)[C@@H](O)[C@H]2O)[C@H](C)Cl)N(C)C1` [Clindamycin phosphate], which Ki is on record?
A: 35.8 mM
